ChEMBL document CHEMBL1201862, “PubChem BioAssay data set” (2004)
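Each compound was tested at five concentrations against cells in 96-well plates for 48 hours. The concentration for 50% growth inhibition is given as GI50.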 Calls of active or inactive are those of the source. Cut-off read from the data, not from the text of the source: active = GI50 up to about 1.1 µM and inactive = higher.

Tests used:
Assay in all cases: NCI tumour cell line growth inhibition, 48 h
786-0 = tested on: 786-0
A498 = tested on: A498
A549 = tested on: A549
ACHN = tested on: ACHN
BT-549 = tested on: BT-549
CAKI-1 = tested on: CAKI-1
CCRF-CEM = tested on: CCRF-CEM
COLO 205 = tested on: COLO 205
DU-145 = tested on: DU-145
EKVX = tested on: EKVX
HCT-116 = tested on: HCT-116
HCT-15 = tested on: HCT-15
HL-60 = tested on: HL-60
HOP-62 = tested on: HOP-62
HT-29 = tested on: HT-29
Hs-578T = tested on: Hs-578T
IGROV-1 = tested on: IGROV-1
K562 = tested on: K562
KM12 = tested on: KM12
LOX IMVI = tested on: LOX IMVI
M14 = tested on: M14
MCF7 = tested on: MCF7
MDA-MB-231 = tested on: MDA-MB-231
MDA-MB-435 = tested on: MDA-MB-435
MDA-N = tested on: MDA-N
MOLT-4 = tested on: MOLT-4
Malme-3M = tested on: Malme-3M
NCI-H226 = tested on: NCI-H226
NCI-H23 = tested on: NCI-H23
NCI-H460 = tested on: NCI-H460
NCI-H522 = tested on: NCI-H522
NCI/ADR-RES = tested on: NCI/ADR-RES
OVCAR-3 = tested on: OVCAR-3
OVCAR-4 = tested on: OVCAR-4
OVCAR-5 = tested on: OVCAR-5
OVCAR-8 = tested on: OVCAR-8
PC-3 = tested on: PC-3
RPMI-8226 = tested on: RPMI-8226
RXF 393 = tested on: RXF 393
SF-295 = tested on: SF-295
SF-539 = tested on: SF-539
SK-MEL-28 = tested on: SK-MEL-28
SK-MEL-2 = tested on: SK-MEL-2
SK-MEL-5 = tested on: SK-MEL-5
SK-OV-3 = tested on: SK-OV-3
SN12C = tested on: SN12C
SNB-19 = tested on: SNB-19
SNB-75 = tested on: SNB-75
SR = tested on: SR
SW-620 = tested on: SW-620
T47D = tested on: T47D
TK-10 = tested on: TK-10
U-251 = tested on: U-251
UACC-257 = tested on: UACC-257
UO-31 = tested on: UO-31
HCC 2998 = tested on: HCC 2998
HOP-92 = tested on: HOP-92
SF-268 = tested on: SF-268
UACC-62 = tested on: UACC-62

For `CC(SC(=S)N1CCOCC1)C(=O)Nc1nnc(-c2ccccc2)o1` (stereo not drawn), the GI50 (786-0) was 83.2 µM (inactive), the GI50 (A498) was > 100 µM (inactive) and the GI50 (A549) was 70 µM (inactive). The GI50 (ACHN) was 97.7 µM (inactive), the GI50 (BT-549) was > 100 µM (inactive) and the GI50 (CAKI-1) was > 100 µM (inactive). For the same molecule, the GI50 (CCRF-CEM) was 4.23 µM (inactive), the GI50 (COLO 205) was > 100 µM (inactive) and the GI50 (DU-145) was > 100 µM (inactive). The GI50 (EKVX) was > 100 µM (inactive), the GI50 (HCT-116) was 93.3 µM (inactive) and the GI50 (HCT-15) was 29.7 µM. For the same molecule, the GI50 (HL-60) was 5.05 µM (inactive), the GI50 (HOP-62) was > 100 µM (inactive) and the GI50 (HT-29) was 61.1 µM (inactive). The GI50 (Hs-578T) was > 100 µM (inactive), the GI50 (IGROV-1) was 99.1 µM (inactive) and the GI50 (K562) was 55.1 µM (inactive). The GI50 (KM12) was > 100 µM (inactive), the GI50 (LOX IMVI) was 71.4 µM (inactive) and the GI50 (M14) was > 100 µM (inactive). The GI50 (MCF7) was 60.1 µM (inactive), the GI50 (MDA-MB-231) was > 100 µM (inactive) and the GI50 (MDA-MB-435) was > 100 µM (inactive). The GI50 (MDA-N) was > 100 µM (inactive), the GI50 (MOLT-4) was 36.8 µM (inactive) and the GI50 (Malme-3M) was > 100 µM (inactive). The GI50 (NCI-H226) was > 100 µM (inactive), the GI50 (NCI-H23) was > 100 µM (inactive) and the GI50 (NCI-H460) was > 100 µM (inactive). For the same molecule, the GI50 (NCI-H522) was 39.8 µM (inactive), the GI50 (NCI/ADR-RES) was 26.1 µM (inactive) and the GI50 (OVCAR-3) was > 100 µM (inactive). The GI50 (OVCAR-4) was > 100 µM (inactive), the GI50 (OVCAR-5) was > 100 µM (inactive) and the GI50 (OVCAR-8) was > 100 µM (inactive). The GI50 (PC-3) was 57.1 µM (inactive), the GI50 (RPMI-8226) was 43.1 µM (inactive) and the GI50 (RXF 393) was > 100 µM (inactive). For the same molecule, the GI50 (SF-295) was 88.5 µM (inactive), the GI50 (SF-539) was > 100 µM (inactive) and the GI50 (SK-MEL-28) was > 100 µM (inactive). The GI50 (SK-MEL-2) was > 100 µM (inactive), the GI50 (SK-MEL-5) was 46.7 µM (inactive) and the GI50 (SK-OV-3) was > 100 µM (inactive). The GI50 (SN12C) was 93.3 µM (inactive), the GI50 (SNB-19) was > 100 µM (inactive) and the GI50 (SNB-75) was > 100 µM (inactive). For the same molecule, the GI50 (SR) was 21.8 µM (inactive), the GI50 (SW-620) was 51.6 µM (inactive) and the GI50 (T47D) was 91.6 µM (inactive). For the same molecule, the GI50 (TK-10) was > 100 µM (inactive), the GI50 (U-251) was > 100 µM (inactive) and the GI50 (UACC-257) was > 100 µM (inactive). For the same molecule, the GI50 (UO-31) was 53.2 µM (inactive).
With `CC1=NN(c2ccccc2)C2(C1)C(Cl)C(=O)N2c1nc2ccccc2s1` (stereo not drawn) the GI50 (786-0) was 31.9 µM (inactive), the GI50 (A498) was 53 µM (inactive) and the GI50 (A549) was 35.2 µM (inactive). For the same molecule, the GI50 (ACHN) was 46.9 µM (inactive), the GI50 (BT-549) was 34.1 µM (inactive) and the GI50 (CAKI-1) was 66.7 µM (inactive). For the same molecule, the GI50 (CCRF-CEM) was 14.9 µM (inactive), the GI50 (COLO 205) was 27.3 µM (inactive) and the GI50 (DU-145) was 36.2 µM (inactive). For the same molecule, the GI50 (EKVX) was 30.6 µM (inactive), the GI50 (HCC 2998) was 60.4 µM (inactive) and the GI50 (HCT-116) was 21.5 µM (inactive). The GI50 (HCT-15) was 29.9 µM, the GI50 (HL-60) was 21.1 µM (inactive) and the GI50 (HOP-62) was 25.2 µM (inactive). The GI50 (HOP-92) was 73.6 µM (inactive), the GI50 (HT-29) was 34.9 µM (inactive) and the GI50 (Hs-578T) was 50.5 µM (inactive). The GI50 (IGROV-1) was 16.6 µM (inactive), the GI50 (K562) was 33.6 µM (inactive) and the GI50 (KM12) was 49.5 µM (inactive). The GI50 (LOX IMVI) was 13.5 µM (inactive), the GI50 (M14) was 33.2 µM (inactive) and the GI50 (MCF7) was 43.9 µM (inactive). The GI50 (MDA-MB-231) was 28.8 µM (inactive), the GI50 (MDA-MB-435) was 40.6 µM (inactive) and the GI50 (MDA-N) was 35.6 µM (inactive). For the same molecule, the GI50 (MOLT-4) was 20.7 µM (inactive), the GI50 (Malme-3M) was 42.2 µM (inactive) and the GI50 (NCI-H226) was 15.1 µM (inactive). For the same molecule, the GI50 (NCI-H23) was 24.2 µM (inactive), the GI50 (NCI-H460) was 31 µM (inactive) and the GI50 (NCI-H522) was 21.6 µM (inactive). The GI50 (NCI/ADR-RES) was 23.9 µM (inactive), the GI50 (OVCAR-3) was 15.8 µM (inactive) and the GI50 (OVCAR-4) was 85.1 µM (inactive). The GI50 (OVCAR-5) was 41.7 µM (inactive), the GI50 (OVCAR-8) was 36.1 µM (inactive) and the GI50 (PC-3) was 37.1 µM (inactive). For the same molecule, the GI50 (RPMI-8226) was 18.1 µM (inactive), the GI50 (RXF 393) was 23.8 µM (inactive) and the GI50 (SF-268) was 29.9 µM (inactive). The GI50 (SF-295) was 28.8 µM (inactive), the GI50 (SK-MEL-28) was 36.6 µM (inactive) and the GI50 (SK-MEL-2) was 23.8 µM (inactive). The GI50 (SK-MEL-5) was 20.8 µM (inactive), the GI50 (SK-OV-3) was 32.1 µM (inactive) and the GI50 (SN12C) was 23.5 µM (inactive). The GI50 (SNB-19) was 43 µM (inactive), the GI50 (SNB-75) was 80.5 µM (inactive) and the GI50 (SR) was 22.9 µM (inactive). The GI50 (SW-620) was 29.9 µM (inactive), the GI50 (T47D) was 31.5 µM (inactive) and the GI50 (TK-10) was > 100 µM (inactive). The GI50 (U-251) was 26 µM (inactive), the GI50 (UACC-257) was 80.2 µM (inactive) and the GI50 (UACC-62) was 34.4 µM (inactive). The GI50 (UO-31) was 26.6 µM (inactive).
